Patent publication US12343326B2, “Psychoactive medicines and their use for treating psychiatric and neurological conditions and disorders” (Transcend Therapeutics, Inc., priority 2021, dated 2025)

Columns and labels:
[1] = cited from earlier work
168 GPCRs [2] = target: 168 GPCRs (Homo sapiens, UniProt P30550); assay: β-arrestin based GPCR screen (PathHunter / GPCRmax), agonist mode; format: cell-based; parameters: host or cells: PathHunter cell lines; settings: GRPR
Description: (§1) For agonist determination, cells were incubated with sample to induce response. […] Vehicle concentration was 1%.

168 GPCRs [3] = target: 168 GPCRs (Homo sapiens, UniProt P07550); assay: as above; format: cell-based; parameters: host or cells: PathHunter cell lines; settings: ADRB2, Agonist
Description: as §1

168 GPCRs [4] = target: 168 GPCRs (Homo sapiens, UniProt P21462); assay: as above; format: cell-based; parameters: host or cells: PathHunter cell lines
Chain of 168 GPCRs (Homo sapiens, UniProt P21462) (P21462 whole entry): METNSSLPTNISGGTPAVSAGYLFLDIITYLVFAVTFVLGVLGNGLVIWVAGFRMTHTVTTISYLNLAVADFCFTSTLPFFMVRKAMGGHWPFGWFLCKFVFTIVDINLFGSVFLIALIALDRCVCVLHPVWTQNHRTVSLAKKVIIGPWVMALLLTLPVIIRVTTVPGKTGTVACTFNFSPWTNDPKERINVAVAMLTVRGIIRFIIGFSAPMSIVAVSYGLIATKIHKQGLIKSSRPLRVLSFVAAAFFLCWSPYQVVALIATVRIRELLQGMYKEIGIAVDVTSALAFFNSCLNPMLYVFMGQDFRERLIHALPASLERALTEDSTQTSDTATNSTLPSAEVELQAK
Description: as §1

168 GPCRs [5] = target: 168 GPCRs (Homo sapiens, UniProt O43614); assay: as above; format: cell-based; parameters: host or cells: PathHunter cell lines
Chain of 168 GPCRs (Homo sapiens, UniProt O43614) (O43614 whole entry): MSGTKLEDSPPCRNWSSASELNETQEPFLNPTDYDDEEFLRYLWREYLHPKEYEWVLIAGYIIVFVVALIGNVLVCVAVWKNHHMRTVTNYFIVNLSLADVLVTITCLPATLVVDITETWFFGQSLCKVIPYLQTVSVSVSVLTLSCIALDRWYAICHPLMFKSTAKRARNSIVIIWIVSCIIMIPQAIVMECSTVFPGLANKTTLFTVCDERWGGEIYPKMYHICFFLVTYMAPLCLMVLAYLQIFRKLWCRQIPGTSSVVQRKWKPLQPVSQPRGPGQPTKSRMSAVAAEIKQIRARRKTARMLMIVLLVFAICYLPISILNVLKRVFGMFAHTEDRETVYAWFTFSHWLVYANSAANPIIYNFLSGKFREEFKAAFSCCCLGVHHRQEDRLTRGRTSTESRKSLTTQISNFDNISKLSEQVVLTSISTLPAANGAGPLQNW
Description: as §1

168 GPCRs [6] = target: 168 GPCRs (Homo sapiens, UniProt P41145); assay: as above; format: cell-based; parameters: host or cells: PathHunter cell lines
Chain of 168 GPCRs (Homo sapiens, UniProt P41145) (P41145 whole entry): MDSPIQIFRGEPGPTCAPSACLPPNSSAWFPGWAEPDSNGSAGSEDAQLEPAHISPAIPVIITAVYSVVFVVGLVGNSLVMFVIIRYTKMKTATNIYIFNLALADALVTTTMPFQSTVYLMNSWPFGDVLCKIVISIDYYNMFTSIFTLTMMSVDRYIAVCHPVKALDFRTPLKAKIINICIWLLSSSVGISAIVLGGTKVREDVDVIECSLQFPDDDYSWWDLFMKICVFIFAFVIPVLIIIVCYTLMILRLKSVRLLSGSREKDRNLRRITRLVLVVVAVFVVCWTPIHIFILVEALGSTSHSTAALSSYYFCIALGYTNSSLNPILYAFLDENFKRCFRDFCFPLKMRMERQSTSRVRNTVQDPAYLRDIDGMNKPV
Description: as §1

168 GPCRs [7] = target: 168 GPCRs (Homo sapiens, UniProt P43220); assay: as above; format: cell-based; parameters: host or cells: PathHunter cell lines; settings: GLP1R
Chain of 168 GPCRs (Homo sapiens, UniProt P43220) (P43220 24-463): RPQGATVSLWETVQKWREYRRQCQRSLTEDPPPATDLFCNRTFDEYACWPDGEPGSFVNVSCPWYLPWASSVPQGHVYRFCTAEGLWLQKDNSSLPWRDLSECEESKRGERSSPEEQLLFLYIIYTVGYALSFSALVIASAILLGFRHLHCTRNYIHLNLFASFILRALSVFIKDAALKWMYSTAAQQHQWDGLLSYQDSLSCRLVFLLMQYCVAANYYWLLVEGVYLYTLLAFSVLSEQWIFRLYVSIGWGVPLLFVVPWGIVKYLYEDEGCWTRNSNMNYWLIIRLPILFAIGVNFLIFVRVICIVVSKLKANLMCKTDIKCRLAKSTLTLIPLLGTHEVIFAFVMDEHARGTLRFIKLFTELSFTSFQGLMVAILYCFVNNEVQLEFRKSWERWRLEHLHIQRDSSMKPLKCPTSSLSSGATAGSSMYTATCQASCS
Description: as §1

168 GPCRs [8] = target: 168 GPCRs (Homo sapiens, UniProt Q01726); assay: as above; format: cell-based; parameters: host or cells: PathHunter cell lines; settings: MC1R
Chain of 168 GPCRs (Homo sapiens, UniProt Q01726) (Q01726 whole entry): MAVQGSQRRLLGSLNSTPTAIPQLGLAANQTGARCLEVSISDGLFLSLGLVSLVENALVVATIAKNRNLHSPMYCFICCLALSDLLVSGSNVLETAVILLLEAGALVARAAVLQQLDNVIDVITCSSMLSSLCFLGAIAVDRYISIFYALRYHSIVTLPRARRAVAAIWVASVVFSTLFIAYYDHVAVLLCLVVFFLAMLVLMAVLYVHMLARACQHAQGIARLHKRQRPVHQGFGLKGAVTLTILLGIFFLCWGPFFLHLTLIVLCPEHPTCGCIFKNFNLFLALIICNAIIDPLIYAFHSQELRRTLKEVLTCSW
Description: as §1

168 GPCRs [9] = target: 168 GPCRs (Homo sapiens, UniProt Q9H244); assay: as above; format: cell-based; parameters: host or cells: PathHunter cell lines
Chain of 168 GPCRs (Homo sapiens, UniProt Q9H244) (Q9H244 whole entry): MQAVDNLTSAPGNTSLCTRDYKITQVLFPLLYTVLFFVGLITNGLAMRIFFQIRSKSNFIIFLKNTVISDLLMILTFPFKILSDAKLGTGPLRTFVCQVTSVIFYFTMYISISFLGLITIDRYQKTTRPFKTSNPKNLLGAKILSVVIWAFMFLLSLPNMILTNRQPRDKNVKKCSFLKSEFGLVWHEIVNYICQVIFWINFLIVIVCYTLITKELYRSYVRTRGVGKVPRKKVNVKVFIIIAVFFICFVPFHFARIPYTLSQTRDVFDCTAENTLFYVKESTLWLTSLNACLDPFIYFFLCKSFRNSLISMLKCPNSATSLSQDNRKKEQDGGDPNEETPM
Description: as §1

168 GPCRs [10] = target: 168 GPCRs (Homo sapiens, UniProt Q9GZQ6); assay: as above; format: cell-based; parameters: host or cells: PathHunter cell lines
Description: as §1

168 GPCRs [11] = target: 168 GPCRs (Homo sapiens, UniProt P35462); assay: as above; format: cell-based; parameters: host or cells: PathHunter cell lines
Description: as §1

168 GPCRs [12] = target: 168 GPCRs (Homo sapiens, UniProt Q16581); assay: as above; format: cell-based; parameters: host or cells: PathHunter cell lines; settings: C3AR1, Agonist
Description: as §1

168 GPCRs [13] = target: 168 GPCRs (Homo sapiens, UniProt P21918); assay: as above; format: cell-based; parameters: host or cells: PathHunter cell lines
Chain of 168 GPCRs (Homo sapiens, UniProt P21918) (P21918 whole entry): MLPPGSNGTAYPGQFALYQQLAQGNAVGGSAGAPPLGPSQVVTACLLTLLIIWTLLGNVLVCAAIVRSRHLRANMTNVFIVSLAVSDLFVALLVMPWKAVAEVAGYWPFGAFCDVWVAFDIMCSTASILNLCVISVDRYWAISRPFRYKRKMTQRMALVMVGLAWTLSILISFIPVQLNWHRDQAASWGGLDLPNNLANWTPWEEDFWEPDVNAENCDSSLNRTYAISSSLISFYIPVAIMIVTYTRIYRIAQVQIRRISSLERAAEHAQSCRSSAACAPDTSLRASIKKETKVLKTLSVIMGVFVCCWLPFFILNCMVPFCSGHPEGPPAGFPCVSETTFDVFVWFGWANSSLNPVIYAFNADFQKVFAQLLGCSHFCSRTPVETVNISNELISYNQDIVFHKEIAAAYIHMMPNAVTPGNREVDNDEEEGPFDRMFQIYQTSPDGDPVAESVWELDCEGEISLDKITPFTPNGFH
Description: as §1

168 GPCRs [14] = target: T1, 168 GPCRs (Homo sapiens, UniProt P0DMS8); assay: as above; format: cell-based; parameters: host or cells: PathHunter cell lines; settings: ADORA3, Agonist
T1 sequence (P0DMS8 1-318): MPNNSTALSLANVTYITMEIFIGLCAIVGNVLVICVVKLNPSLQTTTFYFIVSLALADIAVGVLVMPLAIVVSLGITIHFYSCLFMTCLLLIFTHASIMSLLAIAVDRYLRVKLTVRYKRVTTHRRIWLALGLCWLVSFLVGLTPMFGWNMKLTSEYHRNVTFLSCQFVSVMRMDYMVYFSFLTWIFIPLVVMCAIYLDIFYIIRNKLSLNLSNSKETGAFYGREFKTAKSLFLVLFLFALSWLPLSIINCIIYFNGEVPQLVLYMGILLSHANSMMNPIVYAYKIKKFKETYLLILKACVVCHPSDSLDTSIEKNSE
Description: as §1

168 GPCRs [15] = target: 168 GPCRs (Homo sapiens, UniProt P33032); assay: as above; format: cell-based; parameters: host or cells: PathHunter cell lines; settings: MC5R
Description: as §1

168 GPCRs [16] = target: 168 GPCRs (Homo sapiens, UniProt P49683); assay: as above; format: cell-based; parameters: host or cells: PathHunter cell lines; settings: PRLHR
Description: as §1

168 GPCRs [17] = target: 168 GPCRs (Homo sapiens, UniProt P48546); assay: as above; format: cell-based; parameters: host or cells: PathHunter cell lines; settings: GIPR
Chain of 168 GPCRs (Homo sapiens, UniProt P48546) (P48546 22-466): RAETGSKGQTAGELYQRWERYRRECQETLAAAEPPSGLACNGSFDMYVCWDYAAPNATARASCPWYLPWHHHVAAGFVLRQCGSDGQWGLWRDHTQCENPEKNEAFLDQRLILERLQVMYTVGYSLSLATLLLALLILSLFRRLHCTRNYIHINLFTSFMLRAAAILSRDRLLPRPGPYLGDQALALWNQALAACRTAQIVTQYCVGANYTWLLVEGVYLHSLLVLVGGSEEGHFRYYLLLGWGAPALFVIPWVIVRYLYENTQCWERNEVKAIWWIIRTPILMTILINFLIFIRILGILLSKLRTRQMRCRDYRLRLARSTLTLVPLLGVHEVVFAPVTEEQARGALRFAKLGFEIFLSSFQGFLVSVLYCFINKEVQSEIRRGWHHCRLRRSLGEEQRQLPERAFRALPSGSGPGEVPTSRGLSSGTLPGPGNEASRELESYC
Description: as §1

168 GPCRs [18] = target: 168 GPCRs (Homo sapiens, UniProt Q9NSD7); assay: as above; format: cell-based; parameters: host or cells: PathHunter cell lines
Chain of 168 GPCRs (Homo sapiens, UniProt Q9NSD7) (Q9NSD7 whole entry): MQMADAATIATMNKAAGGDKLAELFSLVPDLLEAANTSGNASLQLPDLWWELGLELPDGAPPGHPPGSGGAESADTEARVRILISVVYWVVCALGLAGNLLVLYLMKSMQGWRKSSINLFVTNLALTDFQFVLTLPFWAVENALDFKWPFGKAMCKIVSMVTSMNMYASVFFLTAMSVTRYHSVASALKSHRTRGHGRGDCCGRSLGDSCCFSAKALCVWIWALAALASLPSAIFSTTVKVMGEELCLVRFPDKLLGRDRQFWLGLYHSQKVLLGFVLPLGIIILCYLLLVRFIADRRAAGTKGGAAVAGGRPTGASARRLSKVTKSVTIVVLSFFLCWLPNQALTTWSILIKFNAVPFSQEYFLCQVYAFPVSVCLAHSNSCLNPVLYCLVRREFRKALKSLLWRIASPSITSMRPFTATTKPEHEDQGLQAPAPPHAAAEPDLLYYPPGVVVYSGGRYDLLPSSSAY
Description: as §1

168 GPCRs [19] = target: 168 GPCRs (Homo sapiens, UniProt Q8TDS5); assay: as above; format: cell-based; parameters: host or cells: PathHunter cell lines
Chain of 168 GPCRs (Homo sapiens, UniProt Q8TDS5) (Q8TDS5 whole entry): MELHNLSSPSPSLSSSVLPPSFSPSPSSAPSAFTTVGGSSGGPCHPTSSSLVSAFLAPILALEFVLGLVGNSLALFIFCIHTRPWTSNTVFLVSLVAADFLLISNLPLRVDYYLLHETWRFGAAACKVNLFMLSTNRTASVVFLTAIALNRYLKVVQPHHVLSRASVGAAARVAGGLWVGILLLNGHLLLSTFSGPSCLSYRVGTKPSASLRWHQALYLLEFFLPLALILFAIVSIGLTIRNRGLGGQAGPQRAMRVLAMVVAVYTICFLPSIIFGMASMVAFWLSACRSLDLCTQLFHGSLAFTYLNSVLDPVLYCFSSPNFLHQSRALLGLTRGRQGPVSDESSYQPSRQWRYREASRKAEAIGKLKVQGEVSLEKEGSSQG
Description: as §1

168 GPCRs [20] = target: 168 GPCRs (Homo sapiens, UniProt P49146); assay: as above; format: cell-based; parameters: host or cells: PathHunter cell lines; settings: NPY2R
Chain of 168 GPCRs (Homo sapiens, UniProt P49146) (P49146 whole entry): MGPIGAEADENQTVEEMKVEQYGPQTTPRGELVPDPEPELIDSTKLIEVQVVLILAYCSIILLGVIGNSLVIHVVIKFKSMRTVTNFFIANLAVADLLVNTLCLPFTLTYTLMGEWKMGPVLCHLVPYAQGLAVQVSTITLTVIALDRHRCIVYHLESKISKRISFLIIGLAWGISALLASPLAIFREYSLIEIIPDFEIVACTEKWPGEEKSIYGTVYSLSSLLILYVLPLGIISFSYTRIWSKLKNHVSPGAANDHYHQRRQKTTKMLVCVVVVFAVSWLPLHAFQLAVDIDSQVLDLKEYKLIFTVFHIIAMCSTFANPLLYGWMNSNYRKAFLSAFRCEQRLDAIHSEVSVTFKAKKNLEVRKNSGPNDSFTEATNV
Description: as §1

168 GPCRs [21] = target: 168 GPCRs (Homo sapiens, UniProt Q8NFJ6); assay: as above; format: cell-based; parameters: host or cells: PathHunter cell lines
Chain of 168 GPCRs (Homo sapiens, UniProt Q8NFJ6) (Q8NFJ6 whole entry): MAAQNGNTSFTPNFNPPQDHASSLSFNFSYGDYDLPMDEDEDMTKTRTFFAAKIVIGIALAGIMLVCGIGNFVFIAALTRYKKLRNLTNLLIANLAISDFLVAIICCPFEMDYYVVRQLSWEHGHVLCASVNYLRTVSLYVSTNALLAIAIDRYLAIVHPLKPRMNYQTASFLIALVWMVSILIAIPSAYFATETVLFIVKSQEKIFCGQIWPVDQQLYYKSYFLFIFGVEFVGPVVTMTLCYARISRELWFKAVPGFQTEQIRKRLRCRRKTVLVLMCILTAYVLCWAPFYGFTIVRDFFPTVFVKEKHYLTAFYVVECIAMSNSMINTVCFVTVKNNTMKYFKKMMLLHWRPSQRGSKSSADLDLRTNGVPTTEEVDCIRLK
Description: as §1

In the case of CNC(C)C(=O)c1ccc2c(c1)OCO2 (stereo not drawn) [methylone, 3,4-methylenedioxy-N-methylcathinone], the “time to peak brain and serum concentration” value ([1]; rats, intraperitoneal administration) is given as 15 to 30 min, the “half-life shorter than MDMA” value ([1]; relative to MDMA) is given as greater than 50% and the activity at 10 µM (168 GPCRs [2]; Agonist mode, 10 uM) is given as -0.1%. The activity at 1 µM (168 GPCRs [2]; Agonist, 1 uM) was 0%, the activity at 1 µM (168 GPCRs [3]; 1 uM) was 0% and the activity at 10 µM (168 GPCRs [3]; 10 uM) was -0.2%. The activity at 10 µM (168 GPCRs [4]; FPR1, Agonist mode, 10 uM) was 0.5%, the activity at 1 µM (168 GPCRs [4]; FPR1, Agonist, 1 uM) was 2.2% and the activity at 10 µM (168 GPCRs [5]; HCRTR2, Agonist mode, 10 uM) was 0.2%. It also gave an activity at 1 µM (168 GPCRs [5]; HCRTR2, Agonist, 1 uM) of 0.2%, an activity at 10 µM (168 GPCRs [6]; OPRK1, Agonist mode, 10 uM) of -4.1% and an activity at 1 µM (168 GPCRs [6]; OPRK1, Agonist, 1 uM) of -6.3%. The activity at 10 µM (168 GPCRs [7]; Agonist mode, 10 uM) was -0.1%, the activity at 1 µM (168 GPCRs [7]; Agonist, 1 uM) was -0.3% and the activity at 10 µM (168 GPCRs [8]; Agonist mode, 10 uM) was -4.4%. For the same compound, the activity at 1 µM (168 GPCRs [8]; Agonist, 1 uM) was -2.6%, the activity at 10 µM (168 GPCRs [9]; P2RY12, Agonist mode, 10 uM) was -2.5% and the activity at 1 µM (168 GPCRs [9]; P2RY12, Agonist, 1 uM) was -1.5%. It also gave an activity at 10 µM (168 GPCRs [10]; NPFFR1, Agonist mode, 10 uM) of -5.6%, an activity at 1 µM (168 GPCRs [10]; NPFFR1, Agonist, 1 uM) of -4.6% and an activity at 10 µM (168 GPCRs [11]; DRD3, Agonist mode, 10 uM) of 2.3%. It also gave an activity at 1 µM (168 GPCRs [11]; DRD3, Agonist, 1 uM) of 2.2%, an activity at 1 µM (168 GPCRs [12]; 1 uM) of -0.1% and an activity at 10 µM (168 GPCRs [12]; 10 uM) of 0%. It also gave an activity at 10 µM (168 GPCRs [13]; DRD5, Agonist mode, 10 uM) of -0.2%, an activity at 1 µM (168 GPCRs [13]; DRD5, Agonist, 1 uM) of -0.1% and an activity at 1 µM (168 GPCRs [14]; 1 uM) of -4.5%. The activity at 10 µM (168 GPCRs [14]; 10 uM) was -5.3%, the activity at 10 µM (168 GPCRs [15]; Agonist mode, 10 uM) was 8.9% and the activity at 1 µM (168 GPCRs [15]; Agonist, 1 uM) was -7.9%. It also gave an activity at 10 µM (168 GPCRs [16]; Agonist mode, 10 uM) of -0.2%, an activity at 1 µM (168 GPCRs [16]; Agonist, 1 uM) of -2.2% and an activity at 10 µM (168 GPCRs [17]; Agonist mode, 10 uM) of -5.8%. The activity at 1 µM (168 GPCRs [17]; Agonist, 1 uM) was -2.9%, the activity at 10 µM (168 GPCRs [18]; RXFP3, Agonist mode, 10 uM) was -8.7% and the activity at 1 µM (168 GPCRs [18]; RXFP3, Agonist, 1 uM) was -7.6%. It also gave an activity at 10 µM (168 GPCRs [19]; OXER1, Agonist mode, 10 uM) of -3.7%, an activity at 1 µM (168 GPCRs [19]; OXER1, Agonist, 1 uM) of 3.2% and an activity at 10 µM (168 GPCRs [20]; Agonist mode, 10 uM) of 0.2%. The activity at 1 µM (168 GPCRs [20]; Agonist, 1 uM) was -0.1%, the activity at 10 µM (168 GPCRs [21]; PROKR2, Agonist mode, 10 uM) was -0.6% and the activity at 1 µM (168 GPCRs [21]; PROKR2, Agonist, 1 uM) was -0.6%.
